Laboratory results: PubChem BioAssay (NCI)
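Assay format: 96-well plates, 48-hour exposure. The concentration for 50% growth inhibition is given as GI50. Definition used: TGI = concentration required for complete inhibition of growth.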

What was measured:
Test in all cases: NCI-60 cell line screen, 48 h
786-0 renal = tested on: 786-0 renal
A498 renal = tested on: A498 renal
A549 NSCLC = tested on: A549 NSCLC
ACHN renal = tested on: ACHN renal
CAKI-1 renal = tested on: CAKI-1 renal
CCRF-CEM leukemia = tested on: CCRF-CEM leukemia
DU-145 prostate = tested on: DU-145 prostate
EKVX NSCLC = tested on: EKVX NSCLC
HCC-2998 colon = tested on: HCC-2998 colon
HCT-116 colon = tested on: HCT-116 colon
HCT-15 colon = tested on: HCT-15 colon
HL-60(TB) leukemia = tested on: HL-60(TB) leukemia
HOP-62 NSCLC = tested on: HOP-62 NSCLC
HOP-92 NSCLC = tested on: HOP-92 NSCLC
HS 578T breast = tested on: HS 578T breast
HT29 colon = tested on: HT29 colon
IGROV1 ovarian = tested on: IGROV1 ovarian
K-562 leukemia = tested on: K-562 leukemia
KM12 colon = tested on: KM12 colon
LOX IMVI melanoma = tested on: LOX IMVI melanoma
M14 melanoma = tested on: M14 melanoma
MALME-3M melanoma = tested on: MALME-3M melanoma
MCF7 breast = tested on: MCF7 breast
MDA-MB-231 breast = tested on: MDA-MB-231 breast
MDA-MB-435 = tested on: MDA-MB-435
MOLT-4 leukemia = tested on: MOLT-4 leukemia
NCI-H226 lung = tested on: NCI-H226 lung
NCI-H23 lung = tested on: NCI-H23 lung
NCI-H460 lung = tested on: NCI-H460 lung
NCI-H522 lung = tested on: NCI-H522 lung
NCI/ADR-RES ovarian = tested on: NCI/ADR-RES ovarian
OVCAR-3 ovarian = tested on: OVCAR-3 ovarian
OVCAR-4 ovarian = tested on: OVCAR-4 ovarian
OVCAR-5 ovarian = tested on: OVCAR-5 ovarian
OVCAR-8 ovarian = tested on: OVCAR-8 ovarian
PC-3 prostate = tested on: PC-3 prostate
RPMI-8226 leukemia = tested on: RPMI-8226 leukemia
RXF 393 renal = tested on: RXF 393 renal
SF-268 CNS = tested on: SF-268 CNS
SF-295 CNS = tested on: SF-295 CNS
SF-539 CNS = tested on: SF-539 CNS
SK-MEL-28 melanoma = tested on: SK-MEL-28 melanoma
SK-MEL-5 melanoma = tested on: SK-MEL-5 melanoma
SK-OV-3 ovarian = tested on: SK-OV-3 ovarian
SN12C renal = tested on: SN12C renal
SNB-19 CNS = tested on: SNB-19 CNS
SR leukemia = tested on: SR leukemia
SW-620 colon = tested on: SW-620 colon
T-47D breast = tested on: T-47D breast
TK-10 renal = tested on: TK-10 renal
U251 CNS = tested on: U251 CNS
UACC-257 melanoma = tested on: UACC-257 melanoma
UACC-62 melanoma = tested on: UACC-62 melanoma
UO-31 renal = tested on: UO-31 renal
BT-549 breast = tested on: BT-549 breast
SK-MEL-2 melanoma = tested on: SK-MEL-2 melanoma
SNB-75 CNS = tested on: SNB-75 CNS

In the case of `COc1ccc(OC)c2c1C=C[C@H](C1(C)SCCS1)C2C(C)=O` (some centres not stated), the TGI (786-0 renal) is reported as greater than 100 µM, the TGI (A498 renal) is reported as 78.2 µM and the TGI (A549 NSCLC) is reported as greater than 100 µM. It also gave a TGI (ACHN renal) greater than 100 µM, a TGI (CAKI-1 renal) of 90 µM and a TGI (CCRF-CEM leukemia) greater than 100 µM. It also gave a TGI (DU-145 prostate) of 97.9 µM, a TGI (EKVX NSCLC) greater than 100 µM and a TGI (HCC-2998 colon) greater than 100 µM. It also gave a TGI (HCT-116 colon) of 65.3 µM, a TGI (HCT-15 colon) greater than 100 µM and a TGI (HL-60(TB) leukemia) of 41.3 µM. For the same compound, the TGI (HOP-62 NSCLC) was greater than 100 µM, the TGI (HOP-92 NSCLC) was greater than 100 µM and the TGI (HS 578T breast) was 45.6 µM. For the same compound, the TGI (HT29 colon) was 33.8 µM, the TGI (IGROV1 ovarian) was greater than 100 µM and the TGI (K-562 leukemia) was greater than 100 µM. For the same compound, the TGI (KM12 colon) was 99.5 µM, the TGI (LOX IMVI melanoma) was 81.8 µM and the TGI (M14 melanoma) was greater than 100 µM. For the same compound, the TGI (MALME-3M melanoma) was 89.8 µM, the TGI (MCF7 breast) was greater than 100 µM and the TGI (MDA-MB-231 breast) was greater than 100 µM. The TGI (MDA-MB-435) was greater than 100 µM, the TGI (MOLT-4 leukemia) was 60.6 µM and the TGI (NCI-H226 lung) was 63.4 µM. For the same compound, the TGI (NCI-H23 lung) was 71.6 µM, the TGI (NCI-H460 lung) was 76.5 µM and the TGI (NCI-H522 lung) was 41.5 µM. For the same compound, the TGI (NCI/ADR-RES ovarian) was greater than 100 µM, the TGI (OVCAR-3 ovarian) was 61.5 µM and the TGI (OVCAR-4 ovarian) was greater than 100 µM. It also gave a TGI (OVCAR-5 ovarian) of 65.6 µM, a TGI (OVCAR-8 ovarian) greater than 100 µM and a TGI (PC-3 prostate) greater than 100 µM. The TGI (RPMI-8226 leukemia) was 58.6 µM, the TGI (RXF 393 renal) was 92.3 µM and the TGI (SF-268 CNS) was greater than 100 µM. For the same compound, the TGI (SF-295 CNS) was 65.5 µM, the TGI (SF-539 CNS) was 48.2 µM and the TGI (SK-MEL-28 melanoma) was greater than 100 µM. For the same compound, the TGI (SK-MEL-5 melanoma) was 47.1 µM, the TGI (SK-OV-3 ovarian) was 70.9 µM and the TGI (SN12C renal) was greater than 100 µM. It also gave a TGI (SNB-19 CNS) of 81.1 µM, a TGI (SR leukemia) of 59.2 µM and a TGI (SW-620 colon) greater than 100 µM. It also gave a TGI (T-47D breast) greater than 100 µM, a TGI (TK-10 renal) greater than 100 µM and a TGI (U251 CNS) of 73.2 µM. For the same compound, the TGI (UACC-257 melanoma) was greater than 100 µM, the TGI (UACC-62 melanoma) was greater than 100 µM and the TGI (UO-31 renal) was 59.7 µM.

`Nc1cc(N)c2nc(-c3ccccc3)c(NCCc3ccc(Cl)c(Cl)c3)nc2c1` gave a GI50 (786-0 renal) of 3.13 µM, a TGI (786-0 renal) of 21.1 µM and a GI50 (A498 renal) of 11.3 µM. For the same compound, the TGI (A498 renal) was 23.4 µM, the GI50 (A549 NSCLC) was 12.6 µM and the TGI (A549 NSCLC) was 33.1 µM. It also gave a GI50 (ACHN renal) of 3.31 µM, a TGI (ACHN renal) of 12.4 µM and a GI50 (BT-549 breast) of 1.56 µM. For the same compound, the TGI (BT-549 breast) was 13.8 µM, the GI50 (CCRF-CEM leukemia) was 2.77 µM and the TGI (CCRF-CEM leukemia) was 12.3 µM. The GI50 (DU-145 prostate) was 1.63 µM, the TGI (DU-145 prostate) was 3.63 µM and the GI50 (EKVX NSCLC) was 3.16 µM. For the same compound, the TGI (EKVX NSCLC) was 16.2 µM, the GI50 (HCC-2998 colon) was 5.78 µM and the TGI (HCC-2998 colon) was 19.7 µM. For the same compound, the GI50 (HCT-15 colon) was 4.64 µM, the TGI (HCT-15 colon) was 20 µM and the GI50 (HL-60(TB) leukemia) was 2.07 µM. It also gave a TGI (HL-60(TB) leukemia) of 5.27 µM, a GI50 (HOP-62 NSCLC) of 3.92 µM and a TGI (HOP-62 NSCLC) of 39.8 µM. The GI50 (HT29 colon) was 3.4 µM, the TGI (HT29 colon) was 13.2 µM and the GI50 (IGROV1 ovarian) was 3.38 µM. For the same compound, the TGI (IGROV1 ovarian) was 15.9 µM, the GI50 (K-562 leukemia) was 1.87 µM and the TGI (K-562 leukemia) was 5.29 µM. The GI50 (KM12 colon) was 2.63 µM, the TGI (KM12 colon) was 10.5 µM and the GI50 (MALME-3M melanoma) was 1.85 µM. The TGI (MALME-3M melanoma) was 4.5 µM, the GI50 (MDA-MB-231 breast) was 1.3 µM and the TGI (MDA-MB-231 breast) was 3.89 µM. It also gave a GI50 (MOLT-4 leukemia) of 1.14 µM, a TGI (MOLT-4 leukemia) of 9.32 µM and a GI50 (NCI-H226 lung) of 16.5 µM. For the same compound, the TGI (NCI-H226 lung) was 33.3 µM, the GI50 (NCI-H23 lung) was 2.81 µM and the TGI (NCI-H23 lung) was 13.3 µM. It also gave a GI50 (NCI-H460 lung) of 3.21 µM, a TGI (NCI-H460 lung) of 14.1 µM and a GI50 (NCI-H522 lung) of 2.11 µM. The TGI (NCI-H522 lung) was 4.98 µM, the GI50 (NCI/ADR-RES ovarian) was 3.62 µM and the TGI (NCI/ADR-RES ovarian) was 18.8 µM. It also gave a GI50 (OVCAR-5 ovarian) of 1.81 µM, a TGI (OVCAR-5 ovarian) of 4.75 µM and a GI50 (OVCAR-8 ovarian) of 2.41 µM. The TGI (OVCAR-8 ovarian) was 6.02 µM, the GI50 (PC-3 prostate) was 1.01 µM and the TGI (PC-3 prostate) was 4.29 µM. It also gave a GI50 (RPMI-8226 leukemia) of 0.924 µM, a TGI (RPMI-8226 leukemia) of 2.91 µM and a GI50 (SF-268 CNS) of 2.85 µM. It also gave a TGI (SF-268 CNS) of 12.9 µM, a GI50 (SF-539 CNS) of 2.22 µM and a TGI (SF-539 CNS) of 10.9 µM. The GI50 (SK-MEL-2 melanoma) was 10.3 µM, the TGI (SK-MEL-2 melanoma) was 22.4 µM and the GI50 (SK-MEL-28 melanoma) was 2.13 µM. For the same compound, the TGI (SK-MEL-28 melanoma) was 5.88 µM, the GI50 (SK-MEL-5 melanoma) was 2.32 µM and the TGI (SK-MEL-5 melanoma) was 7.52 µM. For the same compound, the GI50 (SK-OV-3 ovarian) was 12.3 µM, the TGI (SK-OV-3 ovarian) was 24.7 µM and the GI50 (SN12C renal) was 1.75 µM. The TGI (SN12C renal) was 3.37 µM, the GI50 (SNB-75 CNS) was 6.18 µM and the TGI (SNB-75 CNS) was 33.4 µM. The GI50 (SR leukemia) was 1.66 µM, the TGI (SR leukemia) was 7.61 µM and the GI50 (SW-620 colon) was 1.64 µM. It also gave a TGI (SW-620 colon) of 2.99 µM, a GI50 (T-47D breast) of 1.8 µM and a TGI (T-47D breast) of 5.94 µM. The GI50 (TK-10 renal) was 4.78 µM, the TGI (TK-10 renal) was 17.5 µM and the GI50 (U251 CNS) was 2.03 µM. The TGI (U251 CNS) was 5.32 µM, the GI50 (UACC-257 melanoma) was 2.06 µM and the TGI (UACC-257 melanoma) was 4.52 µM. It also gave a GI50 (UACC-62 melanoma) of 2.5 µM, a TGI (UACC-62 melanoma) of 7.97 µM and a GI50 (UO-31 renal) of 1.93 µM. It also gave a TGI (UO-31 renal) of 3.97 µM.
